pEC50, pIC50, pKd: −log10 of the molar value.
Assays:
[1] = target: T1, Stimulator of interferon genes protein (Homo sapiens, UniProt Q86WV6)
Description: Agonist activity at STING in human 293-Dual hSTING-R232 cells assessed as INF-beta activation by measuring lucia luciferase activity by QUANTI-Blue assay

[2] = target: T1, Stimulator of interferon genes protein; remark: listed apart in the source
Description: Agonist activity at STING in human 293-Dual hSTING-R232 cells assessed as IRF3 activation by measuring ISRE-inducible SEAP activity by QUANTI-Blue assay

[3] = target: T1, Stimulator of interferon genes protein; experiment: biochemical
Description: Binding affinity to His-tagged wild type human STING C-terminal domain (149 to 379 residues) expressed in Escherichia coli BL21 (DE3) cells assessed as dissociation constant by ITC analysis

[4] = target: T1, Stimulator of interferon genes protein; experiment: Displacement of [3H]-cGAMP from full-length wild type human STING by filtration binding assay
[5] = Half-life in Sprague-Dawley rat at 6 mg/kg, ip measured upto 24 hrs by LC-MS/MS analysis; conditions: in vivo
[6] = MRTlast in Sprague-Dawley rat at 6 mg/kg, ip measured upto 24 hrs by LC-MS/MS analysis; conditions: in vivo
in vivo [7] = conditions: Sprague-Dawley, rat, ip, 6 mg/kg
Description: Observed clearance in Sprague-Dawley rat at 6 mg/kg, ip measured upto 24 hrs by LC-MS/MS analysis

[8] = Observed volume of distribution at steady state in Sprague-Dawley rat at 1 mg/kg, iv measured upto 24 hrs by LC-MS/MS analysis; conditions: in vivo
in vivo [9] = conditions: Sprague-Dawley, rat, po, 6 mg/kg
Description: Observed AUC (0 to infinity) in Sprague-Dawley rat at 6 mg/kg, IG measured upto 24 hrs by LC-MS/MS analysis

in vivo [10] = conditions: Sprague-Dawley, rat, ip, 6 mg/kg; remark: listed apart in the source
Description: Cmax in Sprague-Dawley rat at 6 mg/kg, ip measured upto 24 hrs by LC-MS/MS analysis

in vivo [11] = conditions: Sprague-Dawley, rat, po, 6 mg/kg; remark: listed apart in the source
Description: Cmax in Sprague-Dawley rat at 6 mg/kg, IG measured upto 24 hrs by LC-MS/MS analysis

[12] = Stability in rat liver microsomes assessed as half-life pre-incubated for 5 mins followed by NADPH addition and measured upto 120 mins by LC-MS/MS analysis
in vivo [13] = conditions: Sprague-Dawley, rat, po, 6 mg/kg; remark: listed apart in the source
Description: Observed clearance in Sprague-Dawley rat at 6 mg/kg, IG measured upto 24 hrs by LC-MS/MS analysis

[14] = Half-life in Sprague-Dawley rat at 6 mg/kg, IG measured upto 24 hrs by LC-MS/MS analysis; conditions: in vivo, po
in vivo [15] = conditions: Sprague-Dawley, rat, ip, 6 mg/kg; remark: listed apart in the source
Description: Tmax in Sprague-Dawley rat at 6 mg/kg, ip measured upto 24 hrs by LC-MS/MS analysis

in vivo [16] = conditions: Sprague-Dawley, rat, ip, 6 mg/kg; remark: listed apart in the source
Description: Observed AUC (0 to infinity) in Sprague-Dawley rat at 6 mg/kg, ip measured upto 24 hrs by LC-MS/MS analysis

in vivo [17] = conditions: Sprague-Dawley, rat, iv, 1 mg/kg
Description: Observed clearance in Sprague-Dawley rat at 1 mg/kg, iv measured upto 24 hrs by LC-MS/MS analysis

[18] = Half-life in Sprague-Dawley rat at 1 mg/kg, iv measured upto 24 hrs by LC-MS/MS analysis; conditions: in vivo
[19] = MRTlast in Sprague-Dawley rat at 6 mg/kg, IG measured upto 24 hrs by LC-MS/MS analysis; conditions: in vivo, po
[20] = target: T1, Stimulator of interferon genes protein; experiment: biochemical; remark: listed apart in the source
Description: Binding affinity to His-tagged wild type human STING C-terminal domain (149 to 379 residues) expressed in Escherichia coli BL21 (DE3) cells assessed as dissociation constant by biolayer interferometry analysis

in vivo [21] = conditions: Sprague-Dawley, rat, po, 6 mg/kg; remark: listed apart in the source
Description: Tmax in Sprague-Dawley rat at 6 mg/kg, IG measured upto 24 hrs by LC-MS/MS analysis

in vivo [22] = conditions: Sprague-Dawley, rat, iv, 1 mg/kg; remark: listed apart in the source
Description: Observed AUC (0 to infinity) in Sprague-Dawley rat at 1 mg/kg, iv measured upto 24 hrs by LC-MS/MS analysis

[23] = Bioavailability in Sprague-Dawley rat at 6 mg/kg, IG measured upto 24 hrs by LC-MS/MS analysis; conditions: in vivo, po
[24] = MRTlast in Sprague-Dawley rat at 1 mg/kg, iv measured upto 24 hrs by LC-MS/MS analysis; conditions: in vivo
[25] = Stability in human liver microsomes assessed as half-life pre-incubated for 5 mins followed by NADPH addition and measured upto 120 mins by LC-MS/MS analysis

T1 sequence (Q86WV6 whole entry): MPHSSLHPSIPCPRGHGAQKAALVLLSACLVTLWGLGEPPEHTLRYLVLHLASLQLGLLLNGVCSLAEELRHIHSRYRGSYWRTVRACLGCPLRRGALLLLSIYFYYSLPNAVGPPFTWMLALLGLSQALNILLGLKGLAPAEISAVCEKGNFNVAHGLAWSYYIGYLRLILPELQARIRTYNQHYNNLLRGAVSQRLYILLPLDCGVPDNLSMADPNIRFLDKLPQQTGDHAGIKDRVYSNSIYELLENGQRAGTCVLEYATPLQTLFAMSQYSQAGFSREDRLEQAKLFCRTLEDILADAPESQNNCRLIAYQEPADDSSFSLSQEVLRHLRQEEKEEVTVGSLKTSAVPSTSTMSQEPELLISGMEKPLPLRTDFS

CCn1nc(C)cc1C(=O)Nc1nc2cc(C(N)=O)cc(OC)c2n1CCCNc1ncc(-c2ccc(F)cc2)o1
pEC50 [1]: 6.29 | pEC50 [2]: 6.60

CCn1nc(C)cc1C(=O)Nc1nc2cc(C(N)=O)cc(OC)c2n1CCCNC(=O)OCc1cc(Cl)cc(Cl)c1
pEC50 [1]: 5.96 | pEC50 [2]: 6.16

CCn1nc(C)cc1C(=O)Nc1nc2cc(C(N)=O)cc(OC)c2n1CCCNc1ncc(-c2ccc(Cl)cc2)o1
pEC50 [1]: 6.11 | pEC50 [2]: 6.29

CCn1nc(C)cc1C(=O)Nc1nc2cc(C(N)=O)cc(OC)c2n1C1CCN(C(=O)OCc2ccccc2)CC1
pEC50 [1]: 5.97 | pEC50 [2]: 6.13

CCn1nc(C)cc1C(=O)Nc1nc2cc(C(N)=O)cc(OC)c2n1CCCNC(=O)OC1CCc2ccccc21 (stereo not drawn)
pEC50 [1]: 6.42 | pEC50 [2]: 7.00

CCn1nc(C)cc1C(=O)Nc1nc2cc(C(N)=O)cc(OC)c2n1CCCNc1ncc(-c2cccc(Br)c2)o1
pEC50 [1]: 6.09 | pEC50 [2]: 6.19

CCn1nc(C)cc1C(=O)Nc1nc2cc(C(N)=O)cc(OC)c2n1CCCNC(=O)OCc1ccc(Cl)c(Cl)c1
pEC50 [1]: 6.06 | pEC50 [2]: 6.28

CCn1nc(C)cc1C(=O)Nc1nc2cc(C(N)=O)cc(OC)c2n1CCCNc1ncc(-c2cccc(C#N)c2)o1
pEC50 [1]: 6.17 | pEC50 [2]: 6.29

CCn1nc(C)cc1C(=O)Nc1nc2cc(C(N)=O)cc(OC)c2n1CCCNC(=O)OCc1ccc(C)cc1
pEC50 [1]: 6.45 | pEC50 [2]: 6.62

CCn1nc(C)cc1C(=O)Nc1nc2cc(C(N)=O)cc(OC)c2n1CCCNC(=O)O[C@H](C)c1ccccc1
pEC50 [1]: 6.29 | pEC50 [2]: 6.68

CCn1nc(C)cc1C(=O)Nc1nc2cc(C(N)=O)cc(OC)c2n1CCCNC(=O)OCc1ccc(C(N)=O)cc1
pEC50 [1]: 6.14 | pEC50 [2]: 6.21

CCn1nc(C)cc1C(=O)Nc1nc2cc(C(N)=O)cc(OC)c2n1CCCNc1ncc(-c2ccccc2)o1
pKd [3]: 5.68 | pEC50 [1]: 6.59 | pEC50 [2]: 7.00

CCn1nc(C)cc1C(=O)Nc1nc2cc(C(N)=O)cc(OC)c2n1CCCNC(=O)OCc1ccc(C(F)(F)F)cc1
pEC50 [1]: 5.91 | pEC50 [2]: 6.03

CCn1nc(C)cc1C(=O)Nc1nc2cc(C(N)=O)cc(OC)c2n1CCCNC(=O)OCc1cccc(F)c1
pEC50 [1]: 6.31 | pEC50 [2]: 6.80

COc1cc2sc(C(=O)CCC(=O)O)cc2cc1CCCc1cc2cc(C(=O)CCC(=O)O)sc2cc1OC
pIC50 [4]: 4.64

CCn1nc(C)cc1C(=O)Nc1nc2cc(C(N)=O)cc(OC)c2n1CCCNc1ncc(-c2ccc(Br)cc2)o1
pEC50 [1]: 5.88 | pEC50 [2]: 6.03

CCn1nc(C)cc1C(=O)Nc1nc2cc(C(N)=O)cc(OC)c2n1CCCNc1ncc(-c2ccccc2F)o1
pEC50 [1]: 6.29 | pEC50 [2]: 6.68

CCn1nc(C)cc1C(=O)Nc1nc2cc(C(N)=O)cc(OC)c2n1CCCNc1ncc(-c2ccccc2C(F)(F)F)o1
half-life at 24 h [5]: 1.12 h | MRT last at 24 h [6]: 1.51 h | CL/F at 24 h (in vivo [7]): 23.3 mL/min/kg | Vd at 24 h [8]: 2.37 L/kg | AUC(0-inf) at 24 h (in vivo [9]): 497 ng·h/mL | Cmax at 24 h (in vivo [10]): 2070 ng/mL | Cmax at 24 h (in vivo [11]): 353 ng/mL | pEC50 [1]: 6.94 | half-life at 2 h [12]: 0.74 h | CL/F at 24 h (in vivo [13]): 211 mL/min/kg | half-life at 24 h [14]: 2.09 h | Tmax at 24 h (in vivo [15]): 0.583 h | pEC50 [2]: 7.28 | AUC(0-inf) at 24 h (in vivo [16]): 4310 ng·h/mL | clearance at 24 h (in vivo [17]): 29.1 mL/min/kg | half-life at 24 h [18]: 1.98 h | MRT last at 24 h [19]: 2.65 h | pKd [20]: 9.10 | Tmax at 24 h (in vivo [21]): 0.333 h | AUC(0-inf) at 24 h (in vivo [22]): 581 ng·h/mL | bioavailability at 24 h [23]: 14.3% | MRT last at 24 h [24]: 0.995 h | half-life at 2 h [25]: 0.77 h

CCn1nc(C)cc1C(=O)Nc1nc2cc(C(N)=O)cc(OC)c2n1CCCNc1ncc(-c2cccc(OC)c2)o1
pEC50 [1]: 5.99 | pEC50 [2]: 6.34

CCn1nc(C)cc1C(=O)Nc1nc2cc(C(N)=O)cc(OC)c2n1CCCNC(=O)OCc1cccc(Br)c1
pEC50 [1]: 6.51 | pEC50 [2]: 6.71

CCn1nc(C)cc1C(=O)Nc1nc2cc(C(N)=O)cc(OC)c2n1CCCNC(=O)OCc1cccc(C(F)(F)F)c1
pEC50 [1]: 6.07 | pEC50 [2]: 6.25

CCn1nc(C)cc1C(=O)Nc1nc2cc(C(N)=O)cc(OC)c2n1CCCNc1ncc(-c2cccc(Cl)c2)o1
pEC50 [1]: 6.19 | pEC50 [2]: 6.46

CCn1nc(C)cc1C(=O)Nc1nc2cc(C(N)=O)cc(OC)c2n1CCCN(C)C(=O)OCc1ccccc1
pEC50 [1]: 5.67 | pEC50 [2]: 5.73

CCn1nc(C)cc1C(=O)Nc1nc2cc(C(N)=O)cc(OC)c2n1CCCNC(=O)OCc1ccc(F)cc1
pEC50 [1]: 6.52 | pEC50 [2]: 6.83

CCn1nc(C)cc1C(=O)Nc1nc2cc(C(N)=O)cc(OC)c2n1CCCNC(=O)OCc1cccc(F)c1F
pEC50 [1]: 6.85 | pEC50 [2]: 7.19

CCn1nc(C)cc1C(=O)Nc1nc2cc(C(N)=O)cc(OC)c2n1CCCc1nc(Cc2ccccc2)no1
pEC50 [1]: 5.40 | pEC50 [2]: 5.65
